pEC50, pIC50: −log10 of the molar value. Read-outs that look alike come from different tables or passages of the source.
Columns and labels:
[1] = target: T1, HIV-1 WT RT (Human immunodeficiency virus type 1 group M subtype B, UniProt P03366); assay: biochemical; details: for inhibition at 10 µM: read-out: %inhibn (10µM)
T1 construct: purified RT protein (0.015 mg/mL) was incubated in a 100 µL reaction mixture

[2] = test system: NL4-3 (WT); assay: Cytopathic cell killing assay, cross-resistance profile, infected MT-4 cells; format: cell-based, HIV-1
Method in brief: (§1)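 XTT formazan absorbance (450 nm) after 6 days at 37°C measured survival of HIV-1-infected MT-4 cells treated with half-log compound dilutions in triplicate. Viruses were pre-titered to equivalent infection levels and used at an MOI killing all cells by day 6.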

[3] = test system: HIV-1 isolate 4xAZT/Y181C; assay: as above; format: cell-based
Method in brief: as §1

[4] = test system: HIV-1 isolate 4xAZT; assay: as above; format: cell-based
Method in brief: as §1

[5] = test system: HIV-1 variant A98G; assay: as above; format: cell-based
Method in brief: as §1

[6] = test system: HIV-1 variant K101E; assay: as above; format: cell-based
Method in brief: as §1

[7] = test system: HIV-1 variant K103N; assay: as above; format: cell-based
Method in brief: as §1

[8] = test system: HIV-1 variant L100I; assay: as above; format: cell-based
Method in brief: as §1

[9] = test system: HIV-1 variant L74V; assay: as above; format: cell-based
Method in brief: as §1

[10] = test system: HIV-1 variant V106A; assay: as above; format: cell-based
Method in brief: as §1

[11] = test system: HIV-1 variant V108I; assay: as above; format: cell-based
Method in brief: as §1

[12] = test system: HIV-1 variant V179D; assay: as above; format: cell-based; details: isolate V179D
Method in brief: as §1

[13] = test system: HIV-1 variant Y181C; assay: as above; format: cell-based; details: isolate Y181C
Method in brief: as §1

[14] = test system: HIV-1 variant Y188C; assay: as above; format: cell-based
Method in brief: as §1

[15] = Table 1, WT RT, 10 µM drug concentration
[16] = Human immunodeficiency virus 1, NL43, MT4, Table 4, isolate NL4-3 (WT)
[17] = Human immunodeficiency virus 1, NL43, MT4, Table 8, isolate N1.43
[18] = Human immunodeficiency virus 1, NL43, MT4, Table 9, isolate NL4.3
[19] = Human immunodeficiency virus 1, MT4, Table 4, isolate 4xAZT/Y181C
[20] = Human immunodeficiency virus 1, MT4, Table 8, isolate 4XAZT /Y181C
[21] = Human immunodeficiency virus 1, MT4, Table 4, isolate 4xAZT
[22] = Human immunodeficiency virus 1, MT4, Table 8, isolate 4XAZT
[23] = Human immunodeficiency virus 1, MT4, Table 4, isolate A98G
[24] = Human immunodeficiency virus 1, MT4, Table 8, isolate A9SG
[25] = Human immunodeficiency virus 1, MT4, Table 9, isolate A98G
[26] = Human immunodeficiency virus 1, MT4, Table 4, isolate K101E
[27] = Human immunodeficiency virus 1, MT4, Table 8, isolate K101E
[28] = Human immunodeficiency virus 1, MT4, Table 9, isolate KIOIE
[29] = Human immunodeficiency virus 1, MT4, Table 4, isolate K103N
[30] = Human immunodeficiency virus 1, MT4, Table 8, isolate K103N
[31] = Human immunodeficiency virus 1, MT4, Table 9, isolate K103N
[32] = Human immunodeficiency virus 1, MT4, Table 4, isolate L1001
[33] = Human immunodeficiency virus 1, MT4, Table 8, isolate 1.1001
[34] = Human immunodeficiency virus 1, MT4, Table 9, isolate L1001
[35] = Human immunodeficiency virus 1, MT4, Table 4, isolate L74V
[36] = Human immunodeficiency virus 1, MT4, Table 8, isolate 1.74V
[37] = Human immunodeficiency virus 1, MT4, Table 9, isolate 1.74 V
[38] = Human immunodeficiency virus 1, MT4, Table 4, isolate V106A
[39] = Human immunodeficiency virus 1, MT4, Table 8, isolate V 106A
[40] = Human immunodeficiency virus 1, MT4, Table 9, isolate V106A
[41] = Human immunodeficiency virus 1, MT4, Table 4, isolate V108I
[42] = Human immunodeficiency virus 1, MT4, Table 8, isolate V1081
[43] = Human immunodeficiency virus 1, MT4, Table 9, isolate V1081
[44] = Human immunodeficiency virus 1, MT4, Table 4
[45] = Human immunodeficiency virus 1, MT4, Table 8
[46] = Human immunodeficiency virus 1, MT4, Table 9
[47] = Human immunodeficiency virus 1, MT4, Table 4, isolate Y188C
[48] = Human immunodeficiency virus 1, MT4, Table 8, isolate Y 188C
[49] = Human immunodeficiency virus 1, MT4, Table 9, isolate Y188C

`Fc1cccc(F)c1C1SCc2nc3ccccc3n21` (stereo not drawn) [TZB, 1-(2,6-difluorophenyl)-1H,3H-thiazolo[3,4-a]benzimidazole, reference compound] showed a pIC50 [1] of 6.30, an inhibition at 10 µM [1, 15] of 84% and a pEC50 [2, 16] of 5.77. The pEC50 [2, 17] was 5.00, the pEC50 [2, 18] was 6.00 and the pEC50 [3, 19] was 4.84. The pEC50 [3, 20] was < 5.00, the pEC50 ([3]; Human immunodeficiency virus 1, MT4, Table 9, isolate 4XAZT /Y181C) was < 5.00 and the pEC50 [4, 21] was 5.82. The pEC50 [4, 22] was 5.96, the pEC50 [5, 23] was 4.75 and the pEC50 [5, 24] was 5.00. The pEC50 [5, 25] was 5.00, the pEC50 [6, 26] was < 4.70 and the pEC50 [6, 27] was < 5.00. For the same compound, the pEC50 [6, 28] was < 5.00, the pEC50 [7, 29] was < 4.70 and the pEC50 [7, 30] was < 5.00. For the same compound, the pEC50 [7, 31] was < 4.70, the “activity against the K103N mutation / isolate” value ([7]; result in words, cytopathic cell killing assay) was “ineffective” and the pEC50 [8, 32] was 4.91. For the same compound, the pEC50 [8, 33] was 5.18, the pEC50 [8, 34] was 5.18 and the pEC50 [9, 35] was 6.15. The pEC50 [9, 36] was 6.10, the pEC50 [9, 37] was 6.30 and the pEC50 [10, 38] was < 4.70. For the same compound, the pEC50 [10, 39] was 5.24, the pEC50 [10, 40] was < 5.00 and the pEC50 [11, 41] was 5.01. It also gave a pEC50 [11, 42] of 5.41, a pEC50 [11, 43] of 5.24 and a pEC50 [12, 44] of 5.51. For the same compound, the pEC50 [12, 45] was < 5.00, the pEC50 [12, 46] was 5.41 and the pEC50 [13, 44] was 4.79. For the same compound, the pEC50 [13, 46] was < 5.00, the pEC50 [14, 47] was < 4.70 and the pEC50 [14, 48] was < 4.70. The pEC50 [14, 49] was < 4.70.

For `Cc1cccc2c1nc(-c1c(F)cccc1F)n2Cc1c(F)cccc1F` [compound 33, 1-(2,6-difluorobenzyl)-2-(2,6-difluorophenyl)-4-methylbenzimidazole], the pIC50 ([1]; HIV-1 WT RT, read-out: IC50) was 6.70, the inhibition at 10 µM [1, 15] was 92% and the pIC50 ([1]; Table 1, quantity of drug required to reduce WT RT enzyme activity by 50%, read-out: IC50) was 6.70. The “%inhibn (10µM)” value ([1]; Table 2, WT RT, 10 µM drug concentration) was 92%, the pIC50 ([1]; Table 7, HIV-1 WT RT, read-out: IC50) was 6.70 and the inhibition at 1 µM ([1]; Table 7, WT HIV-1 RT, 1 µM drug, read-out: %inhibn (1µM)) was 71%. The pIC50 ([1]; Table 11, WT RT, read-out: IC50) was 6.70, the pIC50 ([1]; WT RT, read-out: IC50) was 6.70 and the pEC50 [2, 16] was 6.30. The pEC50 [2, 17] was 6.30, the pEC50 [2, 18] was 6.30 and the EC50 ([2]; Human immunodeficiency virus 1, NL43, MT4, Table 10 (values in µM), isolate NL4-3 (WT)) was 0.5 µM. For the same compound, the “-fold better in the inhibition of the various viral isolates than the des-methyl analog 26” value ([2]; various viral isolates of Table 4) was 3- to 4 fold, the pEC50 [3, 19] was 5.46 and the pEC50 [3, 20] was 5.46. For the same compound, the pEC50 [4, 21] was 7.00, the pEC50 [4, 22] was 7.00 and the pEC50 ([4]; Human immunodeficiency virus 1, MT4, Table 9, isolate 4XAZT) was 7.00. For the same compound, the pEC50 [5, 23] was 5.85, the pEC50 [5, 24] was 4.57 and the pEC50 [5, 25] was 5.57. The pEC50 [6, 26] was 4.78, the pEC50 [6, 27] was < 5.00 and the pEC50 [6, 28] was < 5.00. The EC50 ([6]; Human immunodeficiency virus 1, MT4, Table 10 (values in µM), isolate K101E) was 16.7 µM, the pEC50 [7, 29] was 5.09 and the pEC50 [7, 30] was < 4.70. The pEC50 [7, 31] was < 4.70, the EC50 ([7]; Human immunodeficiency virus 1, MT4, Table 10 (values in µM), isolate K103N) was 8.1 µM and the pEC50 [8, 32] was 6.52. It also gave a pEC50 [8, 33] of 6.52, a pEC50 [8, 34] of 6.52 and an EC50 ([8]; Human immunodeficiency virus 1, MT4, Table 10 (values in µM), isolate L1001) of 0.3 µM. For the same compound, the pEC50 [9, 35] was 7.00, the pEC50 [9, 36] was 6.52 and the pEC50 [9, 37] was 6.52. The pEC50 [10, 38] was 4.70, the pEC50 [10, 39] was < 5.00 and the pEC50 [10, 40] was < 5.00. The pEC50 [11, 41] was 5.55, the pEC50 [11, 42] was 5.55 and the pEC50 [11, 43] was 5.55. For the same compound, the EC50 ([11]; Human immunodeficiency virus 1, MT4, Table 10 (values in µM), isolate V108l) was 2.8 µM, the pEC50 [12, 44] was 6.30 and the pEC50 [12, 45] was 6.15. For the same compound, the pEC50 [12, 46] was 6.15, the pEC50 [13, 44] was 5.22 and the pEC50 [13, 46] was 5.37. The EC50 ([13]; Human immunodeficiency virus 1, MT4, Table 10 (values in µM)) was 6 µM, the pEC50 [14, 47] was 5.64 and the pEC50 [14, 48] was 5.52. It also gave a pEC50 [14, 49] of 5.52 and an EC50 ([14]; Human immunodeficiency virus 1, MT4, Table 10 (values in µM), isolate Y188C) of 2.3 µM.

Source: patent EP1210336B1, “SUBSTITUTED BENZIMIDAZOLES AS NON-NUCLEOSIDE INHIBITORS OF REVERSE TRANSCRIPTASE” (THE UNITED STATES OF AMERICA, as represented by the …, priority 1999, dated 2001)
